Legend:
Type in all cases: in vivo
Rhipicephalus sanguineus [1] = test: Rhipicephalus sanguineus - in vitro contact tests with adult brown dog ticks; settings: 5 μg/cm^2, adult dog ticks, after 48 h
Description: For the coating of the test tubes, 9 mg of active ingredient are first dissolved in 1 ml of acetone p.a. and then diluted to the desired concentration with acetone p.a. 250 μl of the solution are distributed homogeneously on the inner walls and base of a 25 ml test tube by turning and rocking on an orbital shaker (rocking rotation at 30 rpm for 2 h). With 900 ppm active ingredient solution and internal surface 44.7 cm^2, given homogeneous distribution, an area-based dose of 5 μg/cm^2 is achieved.
After the solvent has evaporated off, the tubes are populated with 5-10 adult dog ticks (Rhipicephalus sanguineus), sealed with a perforated plastic lid and incubated in a horizontal position in the dark at room temperature and ambient humidity. After 48 h, efficacy is determined To this end, the ticks are knocked to the floor of the tube and incubated on a hotplate at 45-50° C. for not more than 5 min Ticks which remain motionless on the floor or move in such an uncoordinated manner that they are unable to deliberately avoid the heat by climbing upwards are considered to be dead or moribund.
An efficacy of 100% means that all the ticks were dead or moribund. 0% efficacy means that none of the ticks had been harmed.

Rhipicephalus sanguineus [2] = test: Rhipicephalus sanguineus - in vitro contact tests with brown dog ticks (RHIPSA); settings: 1 μg/cm^2, adult ticks, after 48 h
Description: (§1) For the coating of the test tubes, 9 mg of active ingredient are first dissolved in 1 ml of acetone p.a. and then diluted to the desired concentration with acetone p.a. 250 μl of the solution are distributed homogeneously on the inner walls and base of a test tube (25 ml crimp top vial (Fisher Scientific, Order No. 320 55 60) by turning and rocking on a “Rock ‘n’ Roller” (Model L202, Labinco; rocking rotation at 30 rpm in a fume hood for 2 h). With 900 ppm active ingredient solution and internal surface area 44.7 cm^2, given homogeneous distribution, an area-based dose of 5 μg/cm^2 is achieved.
Preparation examples for the inventive halogen-substituted compounds of the formula (I) are tested for their contact efficiency with ectoparasitic arachnids (brown dog ticks here). For this purpose, crimp top vials are coated with 250 μl of an acetone solution of the active ingredient as described above. […] After 48 h, efficacy (knockdown and mortality) and mortality are determined To this end, the ticks are knocked to the floor of the tube and incubated on a hotplate at 45-50° C. for not more than 5 min Ticks which remain motionless on the floor or move in such an uncoordinated manner that they are unable to deliberately avoid the heat by climbing upwards are considered to be dead or knocked down (moribund).

[3] = test system: Aedes aegypti strain MONHEIM; test: Aedes test (AEDSAE surface treatment); settings: read-out: efficacy (mortality in %)
Description: Solvent: acetone+2000 ppm rapeseed oil methyl ester (RME)
To produce an appropriate active ingredient formulation, the active ingredient is dissolved in the solvent (2 mg/ml). The active ingredient formulation is pipetted onto a glazed tile and, after it has dried off, adult mosquitoes of the species Aedes aegypti strain MONHEIM are placed onto the treated tile. The exposure time is 30 minutes.
24 hours after contact with the treated surface, mortality in % is determined 100% means that all mosquitoes have been killed; 0% means that none of the mosquitoes have been killed.

Ctenocephalides felis [4] = test: Ctenocephalides felis - oral test; settings: 100 ppm in citrated cattle blood, adult cat fleas, after 2 days
Description: (§2) Solvent: dimethyl sulphoxide
(§3) For the purpose of producing an appropriate active ingredient formulation, 10 mg of active ingredient are mixed with 0.5 ml of dimethyl sulphoxide. Dilution with citrated cattle blood gives the desired concentration.
(§4) About 20 unfed adult cat fleas (Ctenocephalides felis) are placed into a chamber which is closed at the top and bottom with gauze. A metal cylinder whose bottom end is closed with parafilm is placed onto the chamber. The cylinder contains the blood/active ingredient preparation, which can be imbibed by the fleas through the parafilm membrane.
(§5) After 2 days, the kill in % is determined 100% means that all of the fleas have been killed; 0% means that none of the fleas have been killed.

Myzus persicae = Myzus persicae - spray test; settings: 100 g/ha, Chinese cabbage leaf discs, after 6 days
Description: Solvent: 78 parts by weight of acetone
(§6) • 1.5 parts by weight of dimethylformamide Emulsifier: alkylaryl polyglycol ether
(§7) To produce an appropriate active ingredient formulation, 1 part by weight of active ingredient is dissolved using the specified parts by weight of solvent and made up with water containing an emulsifier concentration of 1000 ppm until the desired concentration is attained. To produce further test concentrations, the preparation is diluted with emulsifier-containing water.
Discs of Chinese cabbage leaves (Brassica pekinensis) infested by all stages of the green peach aphid (Myzus persicae) are sprayed with an active ingredient formulation of the desired concentration.
After 6 days, efficacy in % is determined. 100% means that all the aphids have been killed; 0% means that none of the aphids have been killed.

Phaedon cochleariae = Phaedon cochleariae - spray test; settings: 100 g/ha, Chinese cabbage leaf discs, after 7 days
Description: (§8) Solvent: 78.0 parts by weight of acetone
as §6, §7
Discs of Chinese cabbage leaves (Brassica pekinensis) are sprayed with an active ingredient formulation of the desired concentration and, after drying, populated with larvae of the mustard beetle (Phaedon cochleariae).
After 7 days, efficacy in % is determined 100% means that all the beetle larvae have been killed; 0% means that no beetle larvae have been killed.

Ctenocephalides felis [5] = test: Ctenocephalides felis - oral test (CTECFE); settings: 20 ppm in citrated cattle blood, adult cat fleas, after 2 days
Description: as §2, §3, §4, §5

Ctenocephalides felis [6] = test: Ctenocephalides felis - in vitro contact tests with fleas (CTECFE); settings: 1 μg/cm^2, adult fleas, after 48 h
Description: as §1
Preparation examples for the inventive halogen-substituted compounds of the formula (I) are tested for their contact efficiency with ectoparasitic insects (cat fleas here). For this purpose, crimp top vials are coated with 250 μl of an acetone solution of the active ingredient as described above. After the solvent has evaporated off, the tubes are populated with 5-10 fleas (adult Ctenocephalides felis), sealed with a perforated plastic lid and incubated in a horizontal position at room temperature and ambient humidity. After 48 h, efficacy (knockdown and mortality) and mortality are determined To this end, the test tubes are stood upright and the fleas are knocked to the base of the tube. […]

Tetranychus urticae = Tetranychus urticae - spray test, OP-resistant; settings: 100 g/ha, bean leaf discs, after 6 days
Description: as §8, §6, §7
Discs of bean leaves (Phaseolus vulgaris) infested by all stages of the greenhouse red spider mite (Tetranychus urticae) are sprayed with an active ingredient formulation of the desired concentration.
After 6 days, efficacy in % is determined 100% means that all the spider mites have been killed; 0% means that none of the spider mites have been killed.

For `Cc1cc(C(F)(C(F)(F)F)C(F)(F)F)cc(C)c1-c1cn(-c2ccc(Cl)c(C(=O)NC3CC3)c2)nn1` [I-T48-1, 2-chloro-N-cyclopropyl-5-[4-[2,6-dimethyl-4-[1,2,2,2-tetrafluoro-1-(trifluoromethyl)ethyl]phenyl]triazol-1-yl]benzamide], the “efficacy (dead or moribund)” value (Rhipicephalus sanguineus [1]) was 100%, the “efficacy (dead or knocked down)” value (Rhipicephalus sanguineus [2]) was 100% and the mortality at 20 mg/m2 [3] was 90 to 100%. The mortality at 100 mg/m2 [3] was 90 to 100%, the “efficacy (kill in %)” value (Ctenocephalides felis [4]) was 100% and the “efficacy (aphids killed)” value (Myzus persicae) was 100%. For the same compound, the “efficacy (beetle larvae killed)” value (Phaedon cochleariae) was 100%, the “efficacy (kill in %)” value (Ctenocephalides felis [5]) was 100% and the “efficacy (moribund/knocked down or dead)” value (Ctenocephalides felis [6]) was 100%. For the same compound, the “efficacy (spider mites killed)” value (Tetranychus urticae) was 100%.

— patent publication US10836732B2, “Compounds for combating arthropods” (priority 2013, dated 2020)
